US20240132431A1, “METHOD FOR ALKYLATING ACIDIC FUNCTIONAL GROUP” (Chugai Seiyaku Kabushiki Kaisha, priority 2021, published 2024)

Target: T1, Bcl-2 protein (Recombinant Human Bcl-2 Protein) (Homo sapiens, UniProt P10415)
T1 construct: purchased Novus NBP2-34889
Experiment: Binding evaluation of mixture library compounds to Bcl-2 using AS-MS (affinity selection mass spectrometry)
Conditions: AS-MS, mixture of 1200 compounds, Bcl-2, ASMS Ratio(%)=(A−C)/B×100; for ASMS ratio (%) n = 1: replicate n = 1; for ASMS ratio (%) n = 2: replicate n = 2
Procedure, shortened: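 ASMS Ratio (%) was calculated as (A−C)/B×100, where A is the protein sample after SEC, B the protein-free sample without SEC and C the protein-free sample after SEC. Each compound was at […] in a 1200-member pool with 20 μM Bcl-2, incubated 1 h at 23° C.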

T1 sequence (P10415 whole entry): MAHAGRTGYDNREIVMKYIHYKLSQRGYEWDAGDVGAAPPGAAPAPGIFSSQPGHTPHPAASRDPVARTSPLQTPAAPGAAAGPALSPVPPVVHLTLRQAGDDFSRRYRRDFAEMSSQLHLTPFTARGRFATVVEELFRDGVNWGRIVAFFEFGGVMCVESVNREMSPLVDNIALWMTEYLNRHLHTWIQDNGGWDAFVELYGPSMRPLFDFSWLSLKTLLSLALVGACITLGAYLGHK

Row | SMILES | ASMS ratio (%) n = 1 [%] | ASMS ratio (%) n = 2 [%]
1 | CCOc1cncc(-c2ccc(CN3CCN(c4ccc(C(=O)NCC(F)(F)F)cc4)CC3)c3ccccc23)c1 [B1K066-01, 4-[4-[[4-(5-Ethoxypyridin-3-yl)naphthalen-1-yl]methyl]piperazin-1-yl]-N-(2,2,2-trifluoroethyl)benzamide] | 1.8 | −0.7
2 | CCOc1cccc(-c2csc(CN3CCN(c4ccc(C(=O)NCC(F)(F)F)cc4)CC3)c2)c1 [B1K067-01, 4-[4-[[4-(3-Ethoxyphenyl)thiophen-2-yl]methyl]piperazin-1-yl]-N-(2,2,2-trifluoroethyl)benzamide] | 5.1 | 1.8
3 | CCOc1cncc(-c2csc(CN3CCN(c4ccc(C(=O)NCC(F)(F)F)cc4)CC3)c2)c1 [B1K068-01, 4-[4-[[4-(5-Ethoxypyridin-3-yl)thiophen-2-yl]methyl]piperazin-1-yl]-N-(2,2,2-trifluoroethyl)benzamide] | 2.6 | −1.4
4 | CCOc1cccc(C#Cc2ccccc2CN2CCN(c3ccc(C(=O)NCC(F)(F)F)cc3)CC2)c1 [B1K069-01, 4-[4-[[2-[2-(3-Ethoxyphenyl)ethynyl]phenyl]methyl]piperazin-1-yl]-N-(2,2,2-trifluoroethyl)benzamide] | 3.5 | −1.4
5 | CCOc1cncc(C#Cc2ccccc2CN2CCN(c3ccc(C(=O)NCC(F)(F)F)cc3)CC2)c1 [B1K070-01, 4-[4-[[2-[2-(5-Ethoxypyridin-3-yl)ethynyl]phenyl]methyl]piperazin-1-yl]-N-(2,2,2-trifluoroethyl)benzamide] | 0.0 | 0.0
6 | CCOc1cccc(-c2ccccc2CN2CCN(c3ccc(C(=O)NCC(F)(F)F)nn3)CC2)c1 [B1K071-01, 6-[4-[[2-(3-Ethoxyphenyl)phenyl]methyl]piperazin-1-yl]-N-(2,2,2-trifluoroethyl)pyridazine-3-carboxamide] | 1.6 | −0.9
7 | CCOc1cncc(-c2ccccc2CN2CCN(c3ccc(C(=O)NCC(F)(F)F)nn3)CC2)c1 [B1K072-01, 6-[4-[[2-(5-Ethoxypyridin-3-yl)phenyl]methyl]piperazin-1-yl]-N-(2,2,2-trifluoroethyl)pyridazine-3-carboxamide] | −0.6 | 1.7
8 | CCOc1cccc(-c2ccc(CN3CCN(c4ccc(C(=O)NCC(F)(F)F)nn4)CC3)cc2C)c1 [B1K073-01, 6-[4-[[4-(3-Ethoxyphenyl)-3-methylphenyl]methyl]piperazin-1-yl]-N-(2,2,2-trifluoroethyl)pyridazine-3-carboxamide] | 3.1 | −1.9
9 | CCOc1cncc(-c2ccc(CN3CCN(c4ccc(C(=O)NCC(F)(F)F)nn4)CC3)cc2C)c1 [B1K074-01, 6-[4-[[4-(5-Ethoxypyridin-3-yl)-3-methylphenyl]methyl]piperazin-1-yl]-N-(2,2,2-trifluoroethyl)pyridazine-3-carboxamide] | 0.0 | 0.0
10 | CCOc1cccc(-c2ccc(CN3CCN(c4ccc(C(=O)NCC(F)(F)F)nn4)CC3)c(CC)c2)c1 [B1K075-01, 6-[4-[[4-(3-Ethoxyphenyl)-2-ethylphenyl]methyl]piperazin-1-yl]-N-(2,2,2-trifluoroethyl)pyridazine-3-carboxamide] | 1.4 | −3.8
11 | CCOc1cncc(-c2ccc(CN3CCN(c4ccc(C(=O)NCC(F)(F)F)nn4)CC3)c(CC)c2)c1 [B1K076-01, 6-[4-[[4-(5-Ethoxypyridin-3-yl)-2-ethylphenyl]methyl]piperazin-1-yl]-N-(2,2,2-trifluoroethyl)pyridazine-3-carboxamide] | – | 0.0
12 | CCOc1cccc(-c2ccc(CN3CCN(c4ccc(C(=O)NCC(F)(F)F)nn4)CC3)cc2F)c1 [B1K077-01, 6-[4-[[4-(3-Ethoxyphenyl)-3-fluorophenyl]methyl]piperazin-1-yl]-N-(2,2,2-trifluoroethyl)pyridazine-3-carboxamide] | 2.4 | −0.2
13 | CCOc1cncc(-c2ccc(CN3CCN(c4ccc(C(=O)NCC(F)(F)F)nn4)CC3)cc2F)c1 [B1K078-01, 6-[4-[[4-(5-Ethoxypyridin-3-yl)-3-fluorophenyl]methyl]piperazin-1-yl]-N-(2,2,2-trifluoroethyl)pyridazine-3-carboxamide] | 0.8 | −0.2
14 | CCOc1cccc(-c2ccc(CN3CCN(c4ccc(C(=O)NCC(F)(F)F)nn4)CC3)c(OC)c2)c1 [B1K079-01, 6-[4-[[4-(3-Ethoxyphenyl)-2-methoxyphenyl]methyl]piperazin-1-yl]-N-(2,2,2-trifluoroethyl)pyridazine-3-carboxamide] | 2.2 | −1.3
15 | CCOc1cncc(-c2ccc(CN3CCN(c4ccc(C(=O)NCC(F)(F)F)nn4)CC3)c(OC)c2)c1 [B1K080-01, 6-[4-[[4-(5-Ethoxypyridin-3-yl)-2-methoxyphenyl]methyl]piperazin-1-yl]-N-(2,2,2-trifluoroethyl)pyridazine-3-carboxamide] | 0.0 | 0.0
16 | CCOc1cccc(-c2cc(CN3CCN(c4ccc(C(=O)NCC(F)(F)F)nn4)CC3)cc(OCC)c2)c1 [B1K081-01, 6-[4-[[3-Ethoxy-5-(3-ethoxyphenyl)phenyl]methyl]piperazin-1-yl]-N-(2,2,2-trifluoroethyl)pyridazine-3-carboxamide] | 2.3 | −0.4
17 | CCOc1cncc(-c2cc(CN3CCN(c4ccc(C(=O)NCC(F)(F)F)nn4)CC3)cc(OCC)c2)c1 [B1K082-01, 6-[4-[[3-Ethoxy-5-(5-ethoxypyridin-3-yl)phenyl]methyl]piperazin-1-yl]-N-(2,2,2-trifluoroethyl)pyridazine-3-carboxamide] | 0.0 | 0.0
18 | CCOc1cccc(-c2cc(CN3CCN(c4ccc(C(=O)NCC(F)(F)F)nn4)CC3)cc(OC(C)C)c2)c1 [B1K083-01] | 0.0 | 0.0
19 | CCOc1cncc(-c2cc(CN3CCN(c4ccc(C(=O)NCC(F)(F)F)nn4)CC3)cc(OC(C)C)c2)c1 [B1K084-01, 6-[4-[[3-(5-Ethoxypyridin-3-yl)-5-propan-2-yloxyphenyl]methyl]piperazin-1-yl]-N-(2,2,2-trifluoroethyl)pyridazine-3-carboxamide] | 0.0 | 0.0
20 | CCOc1cccc(-c2cc(OC)c(CN3CCN(c4ccc(C(=O)NCC(F)(F)F)nn4)CC3)c(OC)c2)c1 [B1K085-01] | 4.2 | −0.2
21 | CCOc1cncc(-c2cc(OC)c(CN3CCN(c4ccc(C(=O)NCC(F)(F)F)nn4)CC3)c(OC)c2)c1 [B1K086-01, 6-[4-[[4-(5-Ethoxypyridin-3-yl)-2,6-dimethoxyphenyl]methyl]piperazin-1-yl]-N-(2,2,2-trifluoroethyl)pyridazine-3-carboxamide] | – | 0.0
22 | CCOc1cccc(-c2cc(CN3CCN(c4ccc(C(=O)NCC(F)(F)F)nn4)CC3)cc(C(F)(F)F)c2)c1 [B1K087-01] | 1.8 | −0.1
